Reference: ChEMBL document CHEMBL1201862, “PubChem BioAssay data set” (2004)
Calls of active or inactive are those of the source.

How the values were obtained:
[1] = biological target: T1, Bcl-2-related protein A1 (Mus musculus, UniProt Q07440); assay type: functional;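 also: confirmatory dose–response counterscreen on Bfl-1, used to check hits from a UBC13 polyubiquitin inhibitor campaign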
T1 sequence (Q07440 whole entry): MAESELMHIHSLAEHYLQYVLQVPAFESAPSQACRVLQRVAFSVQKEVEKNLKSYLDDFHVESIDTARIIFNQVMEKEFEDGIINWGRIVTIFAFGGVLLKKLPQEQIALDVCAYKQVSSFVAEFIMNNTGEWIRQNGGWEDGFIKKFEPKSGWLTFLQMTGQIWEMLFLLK

[2] = biological target: T2, Ubiquitin-conjugating enzyme E2 N (Homo sapiens, UniProt P61088); assay type: functional
T2 sequence (P61088 whole entry): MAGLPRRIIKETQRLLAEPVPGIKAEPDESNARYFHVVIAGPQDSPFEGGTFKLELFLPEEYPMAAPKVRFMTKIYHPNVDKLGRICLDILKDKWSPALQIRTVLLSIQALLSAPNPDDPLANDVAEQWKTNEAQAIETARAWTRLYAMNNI

[3] = biological target: T2, Ubiquitin-conjugating enzyme E2 N; assay type: functional; remark: listed apart in the source
[4] = biological target: Protein-arginine deiminase type-4 (Homo sapiens, UniProt Q9UM07); assay: human PAD4 inhibitor potency, dose response, biochemical, fluorescence readout (AID 492970)
Protein-arginine deiminase type-4, sequence (Q9UM07 whole entry): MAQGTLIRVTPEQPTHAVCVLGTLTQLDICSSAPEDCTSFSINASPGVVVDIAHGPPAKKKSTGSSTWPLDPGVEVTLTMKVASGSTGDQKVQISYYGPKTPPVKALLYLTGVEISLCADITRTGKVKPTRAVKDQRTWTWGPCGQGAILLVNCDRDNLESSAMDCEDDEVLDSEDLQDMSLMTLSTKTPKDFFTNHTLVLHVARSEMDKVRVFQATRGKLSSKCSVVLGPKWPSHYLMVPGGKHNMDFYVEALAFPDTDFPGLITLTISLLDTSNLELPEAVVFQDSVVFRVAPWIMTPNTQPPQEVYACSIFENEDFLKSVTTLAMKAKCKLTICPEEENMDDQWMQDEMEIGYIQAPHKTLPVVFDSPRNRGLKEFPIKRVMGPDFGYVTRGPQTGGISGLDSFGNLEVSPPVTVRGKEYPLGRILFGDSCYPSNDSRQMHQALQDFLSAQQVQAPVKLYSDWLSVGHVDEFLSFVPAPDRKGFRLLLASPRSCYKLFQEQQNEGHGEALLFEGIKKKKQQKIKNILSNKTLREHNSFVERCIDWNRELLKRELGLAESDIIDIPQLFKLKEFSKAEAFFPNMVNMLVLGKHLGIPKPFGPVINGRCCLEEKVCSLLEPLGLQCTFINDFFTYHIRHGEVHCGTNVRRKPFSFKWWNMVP

[5] = biological target: Beta-lactamase (Pseudomonas aeruginosa, UniProt Q79MP6);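 also: biochemical dose-response test of metallo-beta-lactamase enzyme inhibition, read out by epi-absorbance; purified recombinant IMP-1 metallo-beta-lactamase with nitrocefin as substrate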
Beta-lactamase (Pseudomonas aeruginosa, UniProt Q79MP6), sequence (Q79MP6 whole entry): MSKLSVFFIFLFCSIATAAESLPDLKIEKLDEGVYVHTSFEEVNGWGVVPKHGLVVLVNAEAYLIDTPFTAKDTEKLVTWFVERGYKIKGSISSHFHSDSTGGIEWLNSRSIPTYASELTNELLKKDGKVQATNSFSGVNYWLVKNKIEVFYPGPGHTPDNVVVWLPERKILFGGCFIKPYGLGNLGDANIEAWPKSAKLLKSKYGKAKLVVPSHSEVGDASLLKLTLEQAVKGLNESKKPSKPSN

[6] = biological target: Beta-lactamase (Salmonella choleraesuis (strain SC-B67), UniProt Q5J463)
Beta-lactamase (Salmonella choleraesuis (strain SC-B67), UniProt Q5J463), sequence (Q5J463 whole entry): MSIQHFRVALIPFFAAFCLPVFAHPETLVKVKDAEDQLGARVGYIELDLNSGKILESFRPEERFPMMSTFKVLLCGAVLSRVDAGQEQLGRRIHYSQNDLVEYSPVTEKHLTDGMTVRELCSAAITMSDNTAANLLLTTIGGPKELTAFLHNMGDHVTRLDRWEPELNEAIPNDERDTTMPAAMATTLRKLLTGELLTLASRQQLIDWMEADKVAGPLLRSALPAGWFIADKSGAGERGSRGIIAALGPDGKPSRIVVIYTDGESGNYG

[7] = biological target: ORF 73 (Human herpesvirus 8, UniProt O40947); assay: inhibitors of C-LANA binding to LBS DNA, dose response, biochemical, fluorescence polarization, cherry-picked samples (AID 504725); parameters: species or system Human gammaherpesvirus 8;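 also: fluorescence polarization of a labeled DNA duplex reporting LANA DNA binding; potency is for inhibitors that block LANA binding to the DNA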
ORF 73, sequence (O40947 whole entry): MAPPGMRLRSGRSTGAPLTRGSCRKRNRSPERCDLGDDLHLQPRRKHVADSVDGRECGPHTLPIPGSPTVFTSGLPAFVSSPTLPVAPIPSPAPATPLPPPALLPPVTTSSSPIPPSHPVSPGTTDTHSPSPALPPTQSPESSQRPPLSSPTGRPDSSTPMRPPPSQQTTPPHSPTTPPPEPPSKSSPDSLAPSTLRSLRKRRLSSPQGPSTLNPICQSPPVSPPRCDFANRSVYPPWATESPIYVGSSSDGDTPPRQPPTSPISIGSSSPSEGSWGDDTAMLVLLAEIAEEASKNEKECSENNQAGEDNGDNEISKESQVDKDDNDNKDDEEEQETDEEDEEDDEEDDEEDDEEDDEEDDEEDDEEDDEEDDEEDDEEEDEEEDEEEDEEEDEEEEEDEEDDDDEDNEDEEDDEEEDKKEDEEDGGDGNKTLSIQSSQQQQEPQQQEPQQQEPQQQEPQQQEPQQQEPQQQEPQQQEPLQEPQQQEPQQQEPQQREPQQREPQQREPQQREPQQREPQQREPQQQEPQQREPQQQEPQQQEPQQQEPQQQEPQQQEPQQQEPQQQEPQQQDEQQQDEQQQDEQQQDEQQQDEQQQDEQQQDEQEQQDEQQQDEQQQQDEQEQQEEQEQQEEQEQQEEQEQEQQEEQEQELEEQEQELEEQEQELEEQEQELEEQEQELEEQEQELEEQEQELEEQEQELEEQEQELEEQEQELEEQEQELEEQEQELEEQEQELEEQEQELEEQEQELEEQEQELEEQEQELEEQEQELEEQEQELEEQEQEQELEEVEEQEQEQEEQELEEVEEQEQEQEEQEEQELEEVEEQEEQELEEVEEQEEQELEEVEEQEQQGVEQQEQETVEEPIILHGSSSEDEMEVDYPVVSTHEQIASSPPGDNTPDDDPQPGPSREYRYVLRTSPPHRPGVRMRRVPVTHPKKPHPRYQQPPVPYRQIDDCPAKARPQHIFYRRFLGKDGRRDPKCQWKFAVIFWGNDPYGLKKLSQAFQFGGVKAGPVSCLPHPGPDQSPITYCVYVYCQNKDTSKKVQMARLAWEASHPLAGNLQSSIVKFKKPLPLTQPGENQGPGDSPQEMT

[8] = fluorescence interference artefacts, compound only, dose response, artefact control for cardiac thin filament activator project, biochemical, no RTF in test wells (AID 504697)
[9] = biological target: Troponin, cardiac muscle (Homo sapiens, UniProt P19429+P45379+P63316); assay: Fluorescence-based biochemical high throughput dose response assay for activators of the calcium sensitivity of cardiac Regulated Thin Filaments (RTF). [Related pubchem assays (depositor defined):AID493008, AID493018, AID504382, AID504383]; assay type: protein-complex assay
[10] = biological target: T3, Insulin-degrading enzyme (Homo sapiens, UniProt P14735); assay: activators of recombinant IDE enzyme, dose response, counter-screen for IDE activator project, biochemical, fluorescence polarization (AID 588681)
T3 sequence (P14735 whole entry): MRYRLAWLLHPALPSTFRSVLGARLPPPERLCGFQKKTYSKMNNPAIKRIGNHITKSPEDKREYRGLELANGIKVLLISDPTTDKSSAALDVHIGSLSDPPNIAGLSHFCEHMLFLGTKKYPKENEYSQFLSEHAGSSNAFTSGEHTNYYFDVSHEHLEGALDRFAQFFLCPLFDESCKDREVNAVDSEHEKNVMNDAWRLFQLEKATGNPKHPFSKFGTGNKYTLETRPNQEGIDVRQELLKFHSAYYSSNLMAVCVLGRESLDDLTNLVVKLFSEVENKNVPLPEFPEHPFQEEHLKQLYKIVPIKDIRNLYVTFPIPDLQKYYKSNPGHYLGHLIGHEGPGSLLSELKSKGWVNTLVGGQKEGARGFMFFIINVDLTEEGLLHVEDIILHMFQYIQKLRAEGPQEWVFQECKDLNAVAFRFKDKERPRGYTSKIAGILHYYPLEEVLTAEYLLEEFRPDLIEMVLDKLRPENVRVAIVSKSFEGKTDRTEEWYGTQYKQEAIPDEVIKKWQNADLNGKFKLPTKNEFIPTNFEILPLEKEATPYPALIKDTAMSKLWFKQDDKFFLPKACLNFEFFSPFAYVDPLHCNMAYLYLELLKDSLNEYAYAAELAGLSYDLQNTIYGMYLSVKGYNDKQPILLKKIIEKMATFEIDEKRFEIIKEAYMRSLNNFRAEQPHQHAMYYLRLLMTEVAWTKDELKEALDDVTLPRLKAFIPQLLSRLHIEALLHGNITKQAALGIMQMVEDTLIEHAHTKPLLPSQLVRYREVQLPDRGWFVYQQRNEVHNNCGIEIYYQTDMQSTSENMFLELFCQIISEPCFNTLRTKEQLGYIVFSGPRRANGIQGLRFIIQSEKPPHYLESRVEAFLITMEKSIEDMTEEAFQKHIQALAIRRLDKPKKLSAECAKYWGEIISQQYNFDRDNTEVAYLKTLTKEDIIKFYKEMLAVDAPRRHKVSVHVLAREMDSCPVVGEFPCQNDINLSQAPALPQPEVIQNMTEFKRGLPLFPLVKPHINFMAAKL

[11] = biological target: T3, Insulin-degrading enzyme; assay: activators of endogenous IDE in HEK cells, dose response, cell-based, fluorescence polarization (AID 588439); assay type: functional
[12] = test system: HEK293; assay: HEK cell cytotoxicity by LDH release, dose response, cytotoxicity control for IDE activator project, fluorescence, HEK cells (AID 588440); assay type: functional, cell-based; settings: Homo sapiens;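 also: cytotoxicity by LDH release measuring loss of membrane integrity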
[13] = test system: HEK293; assay: optical interference in Abeta FP readout, dose response, artefact control for IDE activator project, biochemical, fluorescence polarization (AID 588442); assay type: functional, cell-based; settings: Homo sapiens
[14] = biological target: T4, Tyrosine-protein phosphatase non-receptor type 7 (Homo sapiens, UniProt P35236); assay type: functional
T4 sequence (P35236 whole entry): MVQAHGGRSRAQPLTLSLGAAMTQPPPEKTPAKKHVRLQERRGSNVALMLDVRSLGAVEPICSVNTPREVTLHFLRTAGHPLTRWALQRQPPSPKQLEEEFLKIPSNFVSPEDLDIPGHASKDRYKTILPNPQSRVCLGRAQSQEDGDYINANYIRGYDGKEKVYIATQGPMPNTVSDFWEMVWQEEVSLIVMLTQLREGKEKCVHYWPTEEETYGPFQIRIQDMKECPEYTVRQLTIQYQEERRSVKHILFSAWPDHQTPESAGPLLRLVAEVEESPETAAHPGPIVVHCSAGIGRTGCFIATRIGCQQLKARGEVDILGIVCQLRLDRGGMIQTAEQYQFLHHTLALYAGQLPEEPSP

[15] = biological target: T5, Tyrosine-protein phosphatase non-receptor type 22 (Homo sapiens, UniProt Q9Y2R2); assay type: functional
T5 sequence (Q9Y2R2 whole entry): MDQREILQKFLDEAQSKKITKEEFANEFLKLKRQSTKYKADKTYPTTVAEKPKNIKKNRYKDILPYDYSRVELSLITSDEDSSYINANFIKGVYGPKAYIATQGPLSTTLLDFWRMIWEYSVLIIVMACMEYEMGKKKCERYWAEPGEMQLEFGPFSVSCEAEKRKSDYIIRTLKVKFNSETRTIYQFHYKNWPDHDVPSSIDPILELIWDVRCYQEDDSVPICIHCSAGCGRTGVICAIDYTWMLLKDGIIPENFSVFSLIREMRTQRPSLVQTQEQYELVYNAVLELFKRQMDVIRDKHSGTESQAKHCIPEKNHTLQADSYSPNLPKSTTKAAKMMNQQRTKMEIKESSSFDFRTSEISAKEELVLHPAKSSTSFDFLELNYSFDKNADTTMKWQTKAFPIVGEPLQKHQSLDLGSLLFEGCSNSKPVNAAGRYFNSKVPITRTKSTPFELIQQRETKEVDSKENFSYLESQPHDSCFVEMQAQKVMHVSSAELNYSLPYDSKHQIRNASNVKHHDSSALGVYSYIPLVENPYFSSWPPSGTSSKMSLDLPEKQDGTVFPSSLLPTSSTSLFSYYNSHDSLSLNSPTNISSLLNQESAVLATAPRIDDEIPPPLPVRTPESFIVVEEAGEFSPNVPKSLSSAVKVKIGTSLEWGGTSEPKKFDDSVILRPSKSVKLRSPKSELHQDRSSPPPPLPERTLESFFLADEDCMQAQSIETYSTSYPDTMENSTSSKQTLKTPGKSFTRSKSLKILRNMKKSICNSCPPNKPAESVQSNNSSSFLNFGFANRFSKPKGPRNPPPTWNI

[16] = biological target: T5, Tyrosine-protein phosphatase non-receptor type 22; assay type: functional; remark: listed apart in the source
[17] = biological target: T6, Corticotropin-releasing factor receptor 2/Corticotropin-releasing factor-binding protein (Homo sapiens, UniProt P24387+Q13324); assay: activators of CRF receptor 2 with binding protein – uHTS hits, confirmation (AID 602473); assay type: functional; settings: read-out: EC50_Mean
T6 sequence (Q13324 whole entry): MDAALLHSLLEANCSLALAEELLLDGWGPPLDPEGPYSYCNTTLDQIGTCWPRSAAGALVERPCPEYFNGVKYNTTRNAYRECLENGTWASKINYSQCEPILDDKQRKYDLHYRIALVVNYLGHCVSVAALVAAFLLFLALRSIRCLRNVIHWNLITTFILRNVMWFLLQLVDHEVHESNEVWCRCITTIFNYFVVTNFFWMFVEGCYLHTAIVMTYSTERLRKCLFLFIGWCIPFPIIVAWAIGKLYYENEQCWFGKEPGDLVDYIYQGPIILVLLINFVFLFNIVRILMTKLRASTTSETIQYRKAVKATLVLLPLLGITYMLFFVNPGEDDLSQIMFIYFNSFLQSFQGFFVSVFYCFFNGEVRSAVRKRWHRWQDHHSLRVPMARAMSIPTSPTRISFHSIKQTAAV
T6 sequence (P24387 whole entry): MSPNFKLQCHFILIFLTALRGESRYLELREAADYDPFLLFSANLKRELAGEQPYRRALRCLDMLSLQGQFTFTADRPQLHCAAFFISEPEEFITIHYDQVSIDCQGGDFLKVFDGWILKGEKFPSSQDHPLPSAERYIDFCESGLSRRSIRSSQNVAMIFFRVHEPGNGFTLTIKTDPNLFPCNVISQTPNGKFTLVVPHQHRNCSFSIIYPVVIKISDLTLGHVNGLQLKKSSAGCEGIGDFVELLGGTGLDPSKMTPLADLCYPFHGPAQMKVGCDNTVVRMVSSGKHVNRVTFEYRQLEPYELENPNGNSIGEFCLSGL

Cc1ccc(NC(=O)C2CCN(c3ncnc4c3nc3n4CCCCC3)CC2)cc1Cl
IC50 [1]: > 20 µM (inactive)
IC50 [2]: 16 µM (active)
IC50 [3]: 6.92 µM (active)

NNC(=O)/C(=C\c1ccco1)NC(=O)c1ccccc1
IC50 [4]: > 100 µM (inactive)

CN(C)/C=C1\C=C2C(=O)c3ccccc3N2C1=O
IC50 [5]: 1.02 µM (active)
IC50 [6]: 0.372 µM (active)
AC50 [7]: 0.051 µM (active)
EC50 [8]: > 0.0327 µM (active)
EC50 [9]: > 0.0109 µM (active)
EC50 [10]: > 54.7 µM (inactive)
EC50 [11]: > 54.7 µM (inactive)
IC50 [12]: > 89.2 µM (inactive)
EC50 [13]: > 54.7 µM (inactive)

c1ccc2c(CN3CCCCC3)csc2c1
IC50 [14]: > 79.4 µM (inactive)
IC50 [15]: > 79.4 µM (inactive)
IC50 [16]: > 79.4 µM (inactive)
EC50 [17]: 14.6 µM (active)
